{"source": "patent US10159672B2", "about": "(PARION SCIENCES, INC., priority 2011, dated 2018)", "key": {"[1]": {"test_system": "Human Bronchial Epithelial Cells", "assay": "Absorption rate across human bronchial epithelial cells", "format": "in vitro ADME", "conditions": "n=3", "experimental": "Bronchial cells (dog, human, sheep, or rodent cells) are seeded at a density of 0.25×10^6/cm^2 on a porous Transwell-Col collagen-coated membrane with a growth area of 1.13 cm^2 grown at an air-liquid interface in hormonally defined media that promotes a polarized epithelium. From 12 to 20 days after development of an air-liquid interface (ALI) the cultures are expected to be >90% ciliated, and mucins will accumulate on the cells. To ensure the integrity of primary airway epithelial cell preparations, the transepithelial resistance (R1) and transepithelial potential differences (PD), which are indicators of the integrity of polarized nature of the culture, are measured. […] Concentrations are determined by measuring intrinsic fluorescence of each sodium channel blocker using a Fluorocount Microplate Flourometer or HPLC. Quantitative analysis employs a standard curve generated from authentic reference standard materials of known concentration and purity. […]\nIn the first series of assays, the interaction of test compounds in KBR as an “ASL” stimulant are applied to the apical surface of human airway epithelial cells grown in the T-Col insert system. […] In instances where the fluorescence properties of the test molecule are not adequate for such characterizations, radiolabeled compounds are used for these assays. […]"}, "[2]": {"test_system": "Human Bronchial Epithelial", "assay": "Metabolism by human bronchial epithelial cells", "format": "in vitro ADME", "conditions": "apical or basolateral", "experimental": "Airway epithelial cells have the capacity to metabolize drugs during the process of transepithelial absorption. Further, although less likely, it is possible that drugs can be metabolized on airway epithelial surfaces by specific ectoenzyme activities. Perhaps more likely as an ecto-surface event, compounds may be metabolized by the infected secretions that occupy the airway lumens of patients with lung disease, e.g. cystic fibrosis. Thus, a series of assays is performed to characterize the compound metabolism that results from the interaction of test compounds with human airway epithelia and/or human airway epithelial lumenal products.\nIn the first series of assays, the interaction of test compounds in KBR as an “ASL” stimulant are applied to the apical surface of human airway epithelial cells grown in the T-Col insert system. For most compounds, metabolism (generation of new species) is tested for using high performance liquid chromatography (HPLC) to resolve chemical species and the endogenous fluorescence properties of these compounds to estimate the relative quantities of test compound and novel metabolites. […] In instances where the fluorescence properties of the test molecule are not adequate for such characterizations, radiolabeled compounds are used for these assays. […]"}, "Human plasma stability": {"assay": "Human plasma stability", "format": "in vitro ADME", "conditions": "over 4 hours"}, "[3]": {"assay": "Human plasma protein binding", "format": "in vitro ADME", "conditions": "n=6, read-out: Human Plasma Protein Binding, bound to plasma proteins (converted)"}, "[4]": {"test_system": "New Zealand White rabbits", "assay": "Acute non-GLP ocular toxicity / tolerability study", "format": "in vivo", "experimental": "• An Acute Non-GLP Ocular Toxicity Study In New Zealand White Rabbits With P-1046\nThe purpose of this study was to evaluate the ocular tolerability and systemic exposure of P-1046, an inhibitor of the epithelial sodium channel (ENaC), when administered as a topical instillation to New Zealand white rabbits.\nThe test article (P-1046) were supplied as a light yellow white powder. The test articles were then prepared into dosing solutions for topical ocular application. Twenty-eight experimentally naïve male New Zealand White rabbits, approximately 4 months old at the outset of the study and weighing 2.6-3.1 kilograms at randomization were assigned to treatment groups as shown in the table below:\nAnimals were administered 50 μl of the test or control vehicle onto the globe of right eye and 50 μl of saline onto the globe of the left eye eight times (approximately one hour between each dose) in Groups 1 and 6 and four times (approximately two hours between each dose) in Group 7. Mortality and clinical observations were recorded daily. Body weights were recorded at randomization/selection and prior to sacrifice on Day 2. For blink rate assessment, eye blinks in the right eye only were counted for 3 minutes prior to treatment initiation and following all doses. Instances of wincing and pawing at the eyes during the 3-minute eye blink observation period were recorded as clinical observations. Food consumption was recorded daily. Eyes were scored according to Draize prior to treatment, following each dose and on Day 2 at approximately 24 hours post-dose. Blood for toxicokinetic evaluation was collected from animals in Group 2-7 at pre-dose, 30 minutes after the middle dose (4th dose in groups 3, 5, and 6; 2nd dose in groups 2, 4, and 7) and at 30, 60, 120 and 240 minutes following the final dose on Day 1. Blood samples for evaluation of serum chemistry parameters were collected prior to treatment initiation and at 120 and 240 min following the final dose. Urine samples were collected over a 4-hour period following the final dose. All animals were sacrificed following completion of study procedures on Day 2."}, "[5]": {"conditions": "10 mM x 8 doses and 30 mM x 4 doses, topical ocular, rabbit"}}}
{"smiles": "CN(C)C(=O)[C@H](CCCCNC(=N)N)NC(=O)[C@H](CCc1ccc(CCCCNC(=N)NC(=O)c2nc(Cl)c(N)nc2N)cc1)N(C)C", "note": "[Compound I, 3,5-diamino-6-chloro-N-(N-(4-(4-((S)-3-(dimethylamino)-4-((S)-1-(dimethylamino)-6-guanidino-1-oxohexan-2-ylamino)-4-oxobutyl)phenyl)butyl)carbamimidoyl)pyrazine-2-carboxamide]", "values": [{"measurement": "Absorption Rate Across Human Bronchial Epithelial Cells", "setting": "[1]", "result": "0.12±0.05", "unit": "nM/cm^2/min"}, {"measurement": "Metabolism by Human Bronchial Epithelial", "setting": "[2]", "result": "No metabolites detected"}, {"measurement": "Human Plasma Stability", "setting": "Human plasma stability", "result": "No metabolism detected"}, {"measurement": "fraction unbound", "setting": "[3]", "result": 0.2}, {"measurement": "Appearance of eyes on Day 2", "setting": "[4]; 10 mM group", "result": "appeared normal"}, {"measurement": "Average blink rate", "setting": "[4]; [5]", "result": "only slight increases at some time points, similarly to vehicle treated animals"}, {"measurement": "Cumulative Draize scores (right eye)", "setting": "[4]; [5]", "result": "only slight increases in Draize scoring which are not greater than those observed for vehicle treated animals"}, {"measurement": "Post-dose conjunctival redness, severity and incidence", "setting": "[4]; 10 and 30 mM", "result": "comparable to the vehicle controls"}, {"measurement": "Stinging on instillation", "setting": "[4]; 10 and 30 mM", "result": "do not cause stinging"}, {"measurement": "Ocular tolerability", "setting": "[4]; 10 and 30 mM formulations", "result": "well tolerated"}]}
